# Measured values published in patent US20030050236A1, “Compounds that enhance tumor death” (The University of Chicago, priority 2000, published 2003).
# Where a name gives a salt, the structure may show the parent alone. Read-outs that look alike come from different tables or passages of the source. *1 amine or outer side, *2 acyl side, *3 side chain or, on linkers, in order; H or OH if unused. Where a SMILES comes first, the peptide text is derived from it. Bridges are numbered along the chain shown (N, C = ends). Roman numbers before positions name the chains, in order. Where no end group is shown, it is not given here. [ ]: non-standard residue; d: D form. Actinocin(9to1) = Cc1c2oc3c(C)ccc(C(=O)[*:1])c3nc-2c(C(=O)[*:2])c(N)c1=O; NMeV = CN[C@H](C(=O)O)C(C)C; Dap = NC[C@H](N)C(=O)O; Sar = CNCC(=O)O
# T1: PPT1 (Homo sapiens, UniProt P50897)
# T1 sequence (P50897 28-306): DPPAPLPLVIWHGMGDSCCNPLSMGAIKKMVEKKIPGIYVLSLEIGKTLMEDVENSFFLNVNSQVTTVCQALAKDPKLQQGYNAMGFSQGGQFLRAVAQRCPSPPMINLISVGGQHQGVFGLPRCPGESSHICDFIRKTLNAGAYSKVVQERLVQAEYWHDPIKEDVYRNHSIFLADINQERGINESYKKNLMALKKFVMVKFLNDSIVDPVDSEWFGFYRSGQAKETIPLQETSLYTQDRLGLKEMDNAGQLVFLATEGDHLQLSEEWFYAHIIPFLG
# T2: palmitoyl protein thioesterase 1 (PPT1) (human, UniProt P50897 28-306)
# T2 sequence: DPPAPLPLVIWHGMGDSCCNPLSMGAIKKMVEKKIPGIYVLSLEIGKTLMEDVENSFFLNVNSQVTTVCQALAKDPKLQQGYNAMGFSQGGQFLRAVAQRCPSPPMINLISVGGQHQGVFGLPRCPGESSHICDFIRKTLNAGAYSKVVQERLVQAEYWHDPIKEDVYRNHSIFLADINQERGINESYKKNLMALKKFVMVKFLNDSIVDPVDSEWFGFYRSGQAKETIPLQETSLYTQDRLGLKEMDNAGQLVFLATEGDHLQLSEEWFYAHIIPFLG
# Key:
# PPT1 [1] = target: T1, PPT1; assay: In vitro PPT1 activity assay, [14C]palmitoyl peptide substrates, cell extract
# Method: Incubations were performed for 20 min at 37° C. and reactions terminated by addition of 1 ml of chloroform/methanol/2N HCl (2:1:0.06, v/v). After the centrifugation, organic phase was analyzed by HPTLC using n-butanol/pyridine/acetic acid/water (45:30:9:36, v/v) and [14C] palmitate release was quantified.
# The peptide sequence, AcGCVKIKK (a palmitoylation site in K-Ras), was modified by substituting the SH group of cysteine with NH2 to generate diamino propionic acid, which was then acylated with palmitate (AcG-palmitoyl diamino propionate-VKIKK). […] In another set of experiments, the unmodified peptide itself (AcGCVKIKK) was used as a control to exclude the possibility of a nonspecific effect of the sequence on PPT activity.
# In brief, the cell sonicate was incubated in the assay mixture containing 50 mM sodium citrate (pH 4.0) and IRY([^4C]palmitoylated)CWLRR octapeptide (2,000-4,000 cpm) for 20 min at 37° C. For the pH profile of PPT1 activity, 50 mM sodium citrate (pH 5 or 6) or 50 mM Tris-HCl (pH 7.4) was used with other conditions remaining the same. After addition of 1 ml of chloroform/methanol/2N HCl (2:1:0.06, by volume) and centrifugation, the organic phase was dried, reconstituted sample analyzed by HPTLC using n-butanol/pyridine/acetic acid/water (45:30:9:36, by volume) and the radioactive spot corresponding to [^14C] palmitate was counted.
# PPT1 activity was measured as described above. In brief, the cell sonicate was incubated in the assay mixture (50 mM sodium citrate (pH 4.0) for [^14C]palmitoylated [sequence] Po peptide substrate (3,000-4,000 cpm) or 50 mM Tris (pH 7.4) for [^14C]palmitoylated MLCCMRR GAP43 peptide substrate) for 20 min at 37° C. After organic extraction, samples were analyzed by HPTLC using n-butanol/pyridine/acetic acid/water (45:30:9:36, by volume) and the radioactive spot corresponding to [^14C] palmitate was counted.
# [2] = target: T2, palmitoyl protein thioesterase 1 (PPT1); assay: cell-based or functional assay
# [3] = cited from earlier work; for fraction of dose excreted / recovered in the urine: unchanged, intact or active drug
# [4] = system: PPT1 overexpressing LA-N-5 cells; assay: Cell death by MTT assay in PPT1 overexpressing cells; format: cell-based, human; details: compared to LAN-5 cells
# Method: Cells were plated in 24-well culture plates containing 500 μl media. After drug treatment, 50 μl MTT (5 mg/ml in PBS) was added and incubated for 20 min at 37° C. An aliquot of 500 μl of 10% sodium dodecyl sulfate in 0.01 N HCl was added. After incubating overnight, the absorbance at 570 nm was determined by spectrophotometry. Cell viability was calculated as percent cell survival by dividing absorbance [treatment-blank] by absorbance [control-blank], where treatment is the reading for the treated cells, control is for vehicle-treated cells and blank is for MTT added to the media without cells.
# In order to further verify that the increased susceptibility to drug-induced apoptosis of the AS-PPT1 treated cells was due to compromised PPT1 activity, the extent of cell death induced by C2-ceramide treatment in control was compared to DAP 1-treated cells. Treatment of cells with DAP1 alone induced 5-10% death of cells at DAP1 concentrations up to 100 μM for 6 h., as measured by MTT assay (FIG. 10A). […] In these cells, neither C2-ceramide, DAP1 alone or DAP1 (100 μM) followed by C2-ceramide (30 μM) for 6 h induced more than 10% cell death (FIG. 10B).
# LA-N-5 human neuroblastoma cells were grown in DMEM supplemented with 10% fetal bovine serum and 1% gentamicin. Clones of cells stably expressing PPT1 were selected and maintained by growing in media containing G418 (500 μg/ml) as described (Cho, et al., 2000b). Cell death was measured by the MTT method (Cho et al., 2000a; Cho et al., 2000b; Cho et al., 2000c).
# [5] = multiple myeloma, oral administration; cited from earlier work
# PPT1 [6] = target: T1, PPT1; details: cited from earlier work
# [7] = system: HOG cells, human oligodendroglioma cells; assay: Killing of HOG cells, MTT assay; format: cell-based; details: 24 hours
# Method: The relative potency of DAP1 compared to DAP1 ketoamide (DAP-KA) in killing cells was evaluated. HOG cells, human oligodendroglioma cells, were exposed for 24 hours to a) DAP1 or DAP-KA (FIG. 15A) or […] etoposide and either DAP 1 or DAP-KA (FIG. 15B). The concentration of etoposide was chosen to give 50% killing as measured by MTT assay.
# [8] = system: H-Ras- and N-Ras-encoded p21s; details: cited from earlier work
# [9] = system: LA-N-5 human neuroblastoma cells; assay: Cell viability / cell death by MTT assay; format: cell-based; details: LY-294002 30 μM, C2 ceramide 25 μM; 24 hrs
# Method: LA-N-5 human neuroblastoma cells were grown in DMEM supplemented with 10% fetal bovine serum and 1% gentamicin. […] Cell death was measured by the MTT method (Cho et al., 2000a; Cho et al., 2000b; Cho et al., 2000c).
# [10] = cited from earlier work
molecule,measurement,setting,value
"O=S(=O)(F)Cc1ccccc1 [PMSF, phenylmethylsulfonyl fluoride]",effect on PPT1 enzyme activity,"PPT1 [1]; preincubation with 1 mM, control or PPT1 transfected cells",did not affect the enzyme activity
AcG-palmitoyl diamino propionate-VKIKK (DAP1) (peptide),inhibition in an in vitro assay (PPT activity) (% inhibition at 20 µM),[2],85
CC[C@]1(O)C[C@@H]2CN(CCc3c([nH]c4ccccc34)[C@@](C(=O)OC)(c3cc4c(cc3OC)N(C)[C@H]3[C@@](O)(C(=O)OC)[C@H](OC(C)=O)[C@]5(CC)C=CCN6CC[C@]43[C@@H]65)C2)C1 [Vinblastine],fraction of dose excreted / recovered in the urine,[3],Approximately 15%
"O=NN(CCCl)C(=O)NC1CCCCC1 [Lomustine, 1-(2-chloro-ethyl)-3-cyclohexyl-1 nitrosourea]",radioactivity excreted as degradation products within 24 hours,"[3]; oral, 30 mg/m^2 to 100 mg/m^2",about half
CN[C@@H]1C[C@H]2O[C@@](C)([C@@H]1OC)n1c3ccccc3c3c4c(c5c6ccccc6n2c5c31)C(=O)NC4 [staurosporine],susceptibility of PPT1 overexpressing cells to killing,[4],markedly decreased susceptibility to killing
CO[C@@]12[C@H](COC(N)=O)C3=C(C(=O)C(C)=C(N)C3=O)N1C[C@@H]1N[C@@H]12 [Mitomycin],fraction of dose excreted / recovered in the urine,[3],Approximately 10%
"N[C@@H](Cc1ccc(N(CCCl)CCCl)cc1)C(=O)O [Melphalan, 4-[bis(2-chloroethyl)amino]-L-phenylalanine]",patients showing a favorable response,[5],one third to one half
CC[C@H](C)[C@H]1NC(=O)[C@@H](NC(=O)[C@@H](CC(C)C)N(C)C(=O)[C@@H]2CCCN2C(=O)C(C)O)[C@@H](C)OC(=O)[C@H](Cc2ccc(OC)cc2)N(C)C(=O)[C@@H]2CCCN2C(=O)[C@H](CC(C)C)NC(=O)[C@@H](C)C(=O)[C@H](C(C)C)OC(=O)C[C@@H]1O (stereo partly shown) [Didemnin],mode of PPT1 inhibition,PPT1 [6],non-competitively inhibit PPT1 activity
COc1cc([C@@H]2c3cc4c(cc3[C@@H](O[C@@H]3O[C@@H]5CO[C@@H](C)O[C@H]5[C@H](O)[C@H]3O)[C@H]3COC(=O)[C@H]23)OCO4)cc(OC)c1O [etoposide],susceptibility of PPT1 overexpressing cells to killing,[4],markedly decreased susceptibility to killing
same,killing (MTT assay),[7]; 10 mM etoposide,50%
"Cc1c2oc3c(C)ccc(C(=O)N[C@@H]4C(=O)N[C@H](C(C)C)C(=O)N5CCC[C@H]5C(=O)N(C)CC(=O)N(C)[C@@H](C(C)C)C(=O)O[C@@H]4C)c3nc-2c(C(=O)N[C@@H]2C(=O)N[C@H](C(C)C)C(=O)N3CCC[C@H]3C(=O)N(C)CC(=O)N(C)[C@@H](C(C)C)C(=O)O[C@@H]2C)c(N)c1=O [Actinomycin D] (I: T[dV]P[Sar][NMeV] / II: T[dV]P[Sar][NMeV]; ester I:1-I:C, II:1-II:C; linker I:N-II:N via Actinocin(9to1))",fraction of dose excreted / recovered in the urine,[3],10%
"C/C=C/C/C=C/CCC(=O)[C@H]1O[C@H]1C(N)=O (relative stereo) [cerulenin, [2R, 3S]-2,3-epoxy-4-oxo-7,10-trans, trans-dodecadienamide]",palmitoylation of Ras p21s,[8],able to inhibit the palmitoylation
O=c1cc(N2CCOCC2)oc2c(-c3ccccc3)cccc12 [LY-294002],cell death (MTT assay),[9],about 50%
AcGCVKIKK (Ac-GCVKIKK-NH2),effect on PPT1 activity,"PPT1 [1]; cell extract preincubated 15 min at 37° C., Po, rhodopsin, GAP-43, Gα peptide substrates",did not affect PPT activity
AcG-Dap((+/−)α-hydroxyhexadecanoyl)-VKIKK.amide (Ac-G[Dap]VKIKK-NH2; not fully specified (residue 2); printed as AcG-Dap((+/−)α-hydroxyhexadecanoyl)-VKIKK.amide) [DAP-KA],potency as inducer of cell death relative to DAP1,[7]; with etoposide,more potent inducer of cell death than DAP1
same,potency as inhibitor relative to DAP1,PPT1 [1],more potent inhibitor than DAP1
"COc1cccc2c1C(=O)c1c(O)c3c(c(O)c1C2=O)C[C@@](O)(C(=O)CO)C[C@@H]3O[C@H]1C[C@H](N)[C@H](O)[C@H](C)O1 [Doxorubicin, 5,12-Naphthacenedione, (8 s-cis)-10-[(3-amino-2,3,6-trideoxy-a-L-lyxo-hexopyranosyl)oxy]-7,8,9,1 0-tetrahydro-6,8,11-trihydroxy-8-(hydroxyacetyl)-1-methoxy-hydrochloride]",probability of developing impaired myocardial function,[10]; 400 mg/m^2,3 to 5%
same,probability of developing impaired myocardial function,[10]; 450 mg/m^2,5 to 8%
same,probability of developing impaired myocardial function,[10]; 500 mg/m^2,6 to 20%
same,probability of developing impaired myocardial function,[10]; total cumulative dose of 300 mg/m^2,1 to 2%
"COc1cccc2c1C(=O)c1c(O)c3c(c(O)c1C2=O)C[C@@](O)(C(C)=O)C[C@@H]3O[C@H]1C[C@H](N)[C@H](O)[C@H](C)O1 [daunorubicin, 5,12-Naphthacenedione, (8S-cis)-8-acetyl-10-[(3-amino-2,3 ,6-trideoxy-a-L-lyxo-hexanopyranosyl)oxy]-7,8 ,9,1 0-tetrahydro-6,8, 11-trihydroxy-10-methoxy-, hydrochloride]",susceptibility of PPT1 overexpressing cells to killing,[4],markedly decreased susceptibility to killing
"MLCCMRR (also: [14C]palmitoyl thioester on one Cys, which not given here) [[14C]palmitoylated GAP43 peptide (MLCCMRR)]",depalmitoylation by extract of PPT1-overexpressing cells against vector-transfected cells,[2],~2.5 fold
